Molecules are shown by their SMILES. “Also recorded” adds a separate entry of the source.

The subject of one assay is Shank2^−/− mice. Description: Three-chamber social interaction assay, Shank2 mice. The settings on record: 30 mg/kg i.p., 2 hours prior to test. The assay is classed as in vivo, mouse. From the text:
All mice were backcrossed into a C57BL/6 background, and housed and bred in a mouse vivarium at the Korea Advanced Institute of Science and Technology (KAIST, Shank2^−/−mice) and at Academia Sinica (Tbr1^+/− mice). Pups were kept with the dam until weaning at postnatal day 21. After weaning, animals were group housed in mixed-genotype groups of 3 to 5 mice per cages, and randomly subjected to electrophysiological and behavioral experiments. Animals at 3 to 5 weeks of age were used for electrophysiological experiments; male animals at 2 to 4 months of age were used for behavioral assays. For TFL-Zn staining, male animals at 8 weeks (for Shank2^−/−mice) were used. Wild-type littermates were used as controls.
The injection was performed 2 hours before (Shank2^−/− mice and wild-type littermates), or 3 hours before (Tbr1^+/− mice and wild-type littermates) behavioral assays at the discretion of the facility.
Testing was conducted in dedicated behavioral test rooms during the light phase (three-chamber test) and the dark phase (repetitive behaviors and open field test).
In short, the assay consisted of three phases of 10 minutes duration: habituation, social interaction (Stranger1 vs. Object), and social novelty recognition (Stranger 1 vs. Stranger 2). Exploration was defined as each instance in which wild-type or mutant mouse tries to sniff Object/Stranger, or orients its nose towards and come close to object/stranger. Individual movement tracks were analyzed by Ethovision 10.0 (Noldus) and modified by custom-designed software MatLab (Mathworks) to generate heat maps. Time spent in exploration was analyzed by the researcher who was blinded to the subject genotype (in Shank2 mice), or by using the Smart Video Tracking System (Panlab, in Tbr1 mice). In addition to exploration time, the preference index, which represents a numerical difference between time spent exploring the targets (Stranger1 vs. Object, or Stranger 2 vs. Stranger 1) divided by total time spent exploring both targets, as described previously.
Two hours after CQ treatment, the mice were subjected to a three-chamber social interaction test, which compares the preference of a mouse for a stranger mouse versus a novel inanimate object.

Assay [1] deals with hippocampal SC-CA1 synapses. Description: Tetanus-induced LTP (fEPSP), hippocampal slices. In kind it is cell-based, mouse. The note with it: 4 uM. Here is the method: For electrophysiological experiments, sagittal hippocampal slices (400 uM thick for extracellular, 300 uM thick for intracellular recordings) of Shank2^-/- mice (or ZnT3^-/- mice) and their wild-type littermates were prepared using a vibratome (Leica VT1200) in ice-cold dissection buffer containing (in mM) 212 sucrose, 25 NaHCO3, 5 KCl, 1.25 NaH2PO4, 0.5 CaCl2, 3.5 MgSO4, 10 D-glucose, 1.25 L-ascorbic acid, and 2 Na-pyruvate bubbled with 95% 02/5% CO2. CA3 was removed to prevent epileptiform activity. Slices were restored for 1 hour in 32° C. in a normal artificial CSF (ACSF) (In units of mM: 124 NaCl, 2.5 kCl, 1 NaH2PO4, 25 NaHCO3, 10 glucose, 2 CaC12, 2 Mg504 oxidized by 95% 02/5% CO2) For the recording, a single slice was moved to and maintained in submerged-type chamber at 28° C., continuously perfused with ACSF (2 mL/minute) saturated with 95% 02/5% CO2. Stimulation and recording pipettes were pulled from borosilicate glass capillaries (Harvard Apparatus) using a micropipette electrode puller ([…]). For extracellular recordings, mouse hippocampal slices at the age of postnatal day 21 to 35 were used. Field excitatory postsynaptic potentials (fEPSPs) were recorded in the stratum radiatum of the hippocampal CA1 region using pipettes filled with ACSF (1 MΩ). fEPSP was amplified (Multiclamp 700B, Molecular Devices), and digitized (Digidata 1440A, Molecular Devices) for measurements. The Schaffer collateral pathway was stimulated every 20 seconds with pipettes filled with ACSF (0.3 to 0.5 MΩ). The stimulation intensity was adjusted to yield a half-maximal response, and three successive responses were averaged and expressed relative to the normalized baseline. To induce LTP, high frequency stimulation (100 Hz, 1 s) was applied after a stable baseline was acquired.

Turning to `Oc1c(I)cc(Cl)c2cccnc12` [clioquinol, 5-Chloro-7-Iodo-8-Hydroxyquinoline], the Social novelty recognition result with Shank2^−/− mice (Shank2^−/− (KO) mice) is “had no effect on social novelty recognition; also recorded: did not affect the social novelty recognition”; with Shank2^−/− mice (Shank2^−/− (KO) mice, listed as Clioquinol) it was “has no effect on social novelty recognition”; in the assay on Shank2^−/− mice (wild-type (WT) mice), “had no effect on social novelty recognition; also recorded: did not affect the social novelty recognition”; in the assay with Shank2^−/− mice (wild-type (WT) mice, listed as Clioquinol), “has no effect”. In addition, the “Tetanus (100 Hz)-induced LTP” value in assay [1] (Shank2^−/− SC-CA1 synapses) is on record as “reversed the reduced tetanus-induced long-term potentiation”; in assay [1] (Shank2^−/− SC-CA1 synapses, listed as CQ), “restored LTP”; in assay [1] (wild-type synapses) it was “had no effect on LTP”.
